Test results reported in ChEMBL document CHEMBL1201862, “PubChem BioAssay data set” (2004).
Values joined by “and” are separate entries in the source; they are usually repeats but may differ in a detail not shown here. Equal values may be shown once.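 Assay format: 96-well plates, 48-hour exposure. Here, GI50 denotes the concentration required for 50% inhibition of growth.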 Active and inactive are the calls of the source. No stated cut-off is given here; in the data, active = GI50 up to about 1.1 µM and inactive = higher.

Experiments:
Test in all cases: NCI-60 cell line screen, 48 h
[1] = system: HOP-62
[2] = system: SW-620
[3] = system: SN12C
[4] = system: 786-0
[5] = system: SF-268
[6] = system: TK-10
[7] = system: EKVX
[8] = system: MCF7
[9] = system: NCI-H226
[10] = system: SR
[11] = system: KM12
[12] = system: SNB-75
[13] = system: Malme-3M
[14] = system: HCT-15
[15] = system: NCI-H522
[16] = system: SK-MEL-2
[17] = system: HL-60
[18] = system: ACHN
[19] = system: OVCAR-8
[20] = system: U-251
[21] = system: RPMI-8226
[22] = system: PC-3
[23] = system: SF-295
[24] = system: SK-MEL-28
[25] = system: CCRF-CEM
[26] = system: A549
[27] = system: UACC-257
[28] = system: NCI-H23
[29] = system: MOLT-4
[30] = system: OVCAR-5
[31] = system: A498
[32] = system: HT-29
[33] = system: OVCAR-3
[34] = system: SK-MEL-5
[35] = system: HCC 2998
[36] = system: SF-539
[37] = system: Hs-578T
[38] = system: K562
[39] = system: NCI-H460
[40] = system: HCT-116
[41] = system: T47D
[42] = system: UACC-62
[43] = system: NCI/ADR-RES
[44] = system: SNB-19
[45] = system: OVCAR-4
[46] = system: HOP-92
[47] = system: UO-31
[48] = system: COLO 205
[49] = system: SK-OV-3
[50] = system: CAKI-1
[51] = system: LOX IMVI
[52] = system: M14
[53] = system: MDA-MB-231
[54] = system: DU-145
[55] = system: MDA-MB-435
[56] = system: MDA-N
[57] = system: IGROV-1

Compound: Cc1ncc([N+](=O)[O-])n1CC(O)Cn1cnc([N+](=O)[O-])n1 (stereo not drawn)
- GI50 [1]: > 100 µM (inactive)
- GI50 [2]: > 100 µM (inactive)
- GI50 [3]: > 100 µM (inactive)
- GI50 [4]: > 100 µM (inactive)
- GI50 [5]: > 100 µM (inactive)
- GI50 [6]: > 10 µM (inactive)
- GI50 [7]: > 100 µM (inactive)
- GI50 [8]: > 100 µM (inactive)
- GI50 [9]: > 100 µM (inactive)
- GI50 [10]: > 100 µM (inactive)
- GI50 [11]: > 100 µM (inactive)
- GI50 [12]: > 100 µM (inactive)
- GI50 [13]: 55.1 µM (inactive)
- GI50 [14]: > 100 µM
- GI50 [15]: > 100 µM (inactive)
- GI50 [16]: > 100 µM (inactive)
- GI50 [17]: 64.1 µM (inactive)
- GI50 [18]: > 100 µM (inactive)
- GI50 [19]: > 100 µM (inactive)
- GI50 [20]: > 100 µM (inactive)
- GI50 [21]: > 100 µM (inactive)
- GI50 [22]: > 100 µM (inactive)
- GI50 [23]: > 100 µM (inactive)
- GI50 [24]: > 100 µM (inactive)
- GI50 [25]: > 100 µM (inactive)
- GI50 [26]: > 100 µM (inactive)
- GI50 [27]: > 100 µM (inactive)
- GI50 [28]: > 100 µM (inactive)
- GI50 [29]: > 100 µM (inactive)
- GI50 [30]: > 100 µM (inactive)
- GI50 [31]: 2.84 µM (inactive)
- GI50 [32]: > 100 µM (inactive)
- GI50 [33]: > 100 µM (inactive)
- GI50 [34]: > 100 µM (inactive)
- GI50 [35]: > 100 µM (inactive)
- GI50 [36]: > 100 µM (inactive)
- GI50 [37]: > 100 µM (inactive)
- GI50 [38]: > 100 µM (inactive)
- GI50 [39]: > 100 µM (inactive)
- GI50 [40]: > 100 µM (inactive)

Compound: COc1ccc(C2c3c(-c4ccccc4)nn(-c4ccccc4)c3Oc3ncn4nc(CC#N)nc4c32)cc1OC (stereo not drawn)
- GI50 [3]: 15 µM (inactive) and > 20.1 µM (inactive)
- GI50 [7]: 7.89 µM (inactive)
- GI50 [41]: 10.1 µM (inactive)
- GI50 [10]: 5.57 µM (inactive)
- GI50 [14]: 14 µM and 20.3 µM
- GI50 [29]: > 100 µM (inactive)
- GI50 [38]: 22.6 µM (inactive) and > 23.7 µM (inactive)

Compound: Cc1cc2c3ccccc3[nH]c2c2ccnc(C)c12
- GI50 [1]: 13.6 µM (inactive)
- GI50 [2]: 2.47 µM (inactive)
- GI50 [3]: 5.56 µM (inactive)
- GI50 [4]: 1.65 µM (inactive)
- GI50 [42]: 7.36 µM (inactive)
- GI50 [43]: 14.7 µM (inactive)
- GI50 [5]: 17.6 µM (inactive)
- GI50 [6]: 14.2 µM (inactive)
- GI50 [7]: 1.49 µM (inactive)
- GI50 [8]: 27.9 µM (inactive)
- GI50 [9]: 13.4 µM (inactive)
- GI50 [41]: 16.7 µM (inactive)
- GI50 [44]: 18.6 µM (inactive)
- GI50 [45]: > 100 µM (inactive)
- GI50 [46]: 5.11 µM (inactive)
- GI50 [10]: 6.62 µM (inactive)
- GI50 [47]: 14.2 µM (inactive)
- GI50 [11]: 10.6 µM (inactive)
- GI50 [48]: 1.94 µM (inactive)
- GI50 [12]: 7.28 µM (inactive)
- GI50 [13]: 13.5 µM (inactive)
- GI50 [14]: 2.34 µM
- GI50 [15]: 2.65 µM (inactive)
- GI50 [49]: 14.2 µM (inactive)
- GI50 [16]: 8.63 µM (inactive)
- GI50 [17]: 2.07 µM (inactive)
- GI50 [18]: 15.7 µM (inactive)
- GI50 [19]: 8.69 µM (inactive)
- GI50 [20]: 2.24 µM (inactive)
- GI50 [50]: 19 µM (inactive)
- GI50 [21]: 3.21 µM (inactive)
- GI50 [22]: 10.2 µM (inactive)
- GI50 [23]: 20 µM (inactive)
- GI50 [24]: 1.77 µM (inactive)
- GI50 [25]: 2.29 µM (inactive)
- GI50 [26]: 8.28 µM (inactive)
- GI50 [27]: 18.2 µM (inactive)
- GI50 [28]: 12.5 µM (inactive)
- GI50 [51]: 2.15 µM (inactive)
- GI50 [29]: 7.16 µM (inactive)
- GI50 [30]: 7.36 µM (inactive)
- GI50 [32]: 3.55 µM (inactive)
- GI50 [33]: 10.3 µM (inactive)
- GI50 [34]: 4.78 µM (inactive)
- GI50 [35]: 2.87 µM (inactive)
- GI50 [52]: 1.84 µM (inactive)
- GI50 [36]: 2.76 µM (inactive)
- GI50 [53]: 4.08 µM (inactive)
- GI50 [37]: 13.6 µM (inactive)
- GI50 [38]: 2.22 µM (inactive)
- GI50 [54]: 6.47 µM (inactive)
- GI50 [55]: 1.65 µM (inactive)
- GI50 [39]: 2.35 µM (inactive)
- GI50 [56]: 1.71 µM (inactive)
- GI50 [40]: 2.21 µM (inactive)
- GI50 [57]: 15.2 µM (inactive)
